# From ChEMBL document CHEMBL3508693 (2016)
# What was measured:
# [1] = Cmax of aliskiren hemifumarate following single dosing of SPP100B oral solution at 640 mg level studied on day 1 in men; format: ADME, organism-based; details: male, human, plasma
# [2] = AUC of aliskiren hemifumarate following single dosing of SPP100B oral solution at 80 mg level studied on day 1 in men; format: ADME, organism-based; details: male, human, plasma
# [3] = AUC of aliskiren hemifumarate following 8 day once-daily dosing of SPP100B oral solution at 80 mg level studied on day 8 in men; format: ADME, organism-based; details: male, human, plasma
# [4] = molecular target: Voltage-gated inwardly rectifying potassium channel KCNH2 (Homo sapiens, UniProt Q12809); assay: Inhibitory concentration of aliskiren hemifumarate against cloned hERG channel expressed in human embryonic kidney cell; format: cell-based; details: hek293
# [5] = Cmax of unlabeled aliskiren hemifumarate following single intravenous dose of aliskiren hemifumarate at 10 mg.Kg-1 level in mouse; format: ADME, organism-based; details: TgRasH2, mouse, plasma
# [6] = Effect of 2 week oral dosing of aliskiren hemifumarate at 50 mg.Kg-1 level on plasma magnesium level in male Callithrix jacchus; format: toxicity, organism-based; details: marmoset, 336 h
# [7] = Cmax of aliskiren hemifumarate following 2 week oral dosing of aliskiren hemifumarate at 100 mg.Kg-1 level studied on day 14 in male Callithrix jacchus; format: ADME, organism-based; details: marmoset, plasma
# [8] = Cmax of aliskiren hemifumarate following 2 week oral dosing of aliskiren hemifumarate at 100 mg.Kg-1 level studied on day 14 in female Callithrix jacchus; format: ADME, organism-based; details: marmoset, plasma
# [9] = Cmaxspec of aliskiren hemifumarate following 2 week oral dosing of aliskiren hemifumarate at 100 mg.Kg-1 level studied on day 1 in male Callithrix jacchus; format: ADME, organism-based, Plasma; details: marmoset, in vivo, 336 h
# [10] = Cmaxspec of aliskiren hemifumarate following 2 week oral dosing of aliskiren hemifumarate at 100 mg.Kg-1 level studied on day 1 in female Callithrix jacchus; format: ADME, organism-based, Plasma; details: marmoset, in vivo, 336 h
# [11] = Bioavailability (0-96h) of unlabeled aliskiren hemifumarate following oral administration of aliskiren hemifumarate at 100 mg.Kg-1 level in rat; format: ADME, organism-based; details: Albino HAN:WIST, plasma
# [12] = Effect of 4 week oral dietary dosing of aliskiren hemifumarate at 2000 mg.Kg-1 level on spermatogenesis in male mouse; format: toxicity, organism-based, CB6F1-TGrasH2, Testis; details: in vivo, 672 h
# [13] = Tmax of aliskiren hemifumarate following 4 week oral dietary dosing of aliskiren hemifumarate at 1000 mg.Kg-1 level in male mouse; format: ADME, organism-based; details: CB6F1-TGrasH2, mouse, in vivo
# [14] = AUC (0-24h) of aliskiren hemifumarate following 4 week oral dietary dosing of aliskiren hemifumarate at 2000 mg.Kg-1 level in female mouse; format: ADME, organism-based; details: CB6F1-TGrasH2, mouse, plasma
# [15] = AUCspec of aliskiren hemifumarate following 2 week oral dosing of aliskiren hemifumarate at 10 mg.Kg-1 level studied on day 1 in male Callithrix jacchus; format: ADME, organism-based, Plasma; details: marmoset, in vivo, 336 h
# [16] = AUCspec of aliskiren hemifumarate following 2 week oral dosing of aliskiren hemifumarate at 100 mg.Kg-1 level studied on day 1 in male Callithrix jacchus; format: ADME, organism-based, Plasma; details: marmoset, in vivo, 336 h
# [17] = AUCspec of aliskiren hemifumarate following 2 week oral dosing of aliskiren hemifumarate at 50 mg.Kg-1 level studied on day 1 in female Callithrix jacchus; format: ADME, organism-based, Plasma; details: marmoset, in vivo, 336 h
# [18] = Tmax (0-168h) of unlabeled aliskiren hemifumarate following single intravenous administration of aliskiren hemifumarate at 1 mg.Kg-1 level in marmoset; format: ADME, organism-based, Callithrix jacchus; details: plasma
# [19] = Cmax (0-168h) of unlabeled aliskiren hemifumarate following single intravenous administration of aliskiren hemifumarate at 1 mg.Kg-1 level in marmoset; format: ADME, organism-based, Callithrix jacchus; details: plasma
# [20] = Oral clearance of SPP100 following single oral dose of SPP100 300 mg capsule studied in healthy human; format: ADME, organism-based; details: plasma
# [21] = molecular target: T1, CYP2A6 (Homo sapiens, UniProt P11509); assay: Inhibitory activity of 20 uM SPP100 on 37 Pmoles of cDNA-derived CYP2A6 enzyme in microsome prepared from human lymphoblastoid cell line; format: ADME, microsomes; set-up: conc 20 uM, interact cpd conc 3 uM; details: probe coumarine
# T1 sequence (P11509 whole entry): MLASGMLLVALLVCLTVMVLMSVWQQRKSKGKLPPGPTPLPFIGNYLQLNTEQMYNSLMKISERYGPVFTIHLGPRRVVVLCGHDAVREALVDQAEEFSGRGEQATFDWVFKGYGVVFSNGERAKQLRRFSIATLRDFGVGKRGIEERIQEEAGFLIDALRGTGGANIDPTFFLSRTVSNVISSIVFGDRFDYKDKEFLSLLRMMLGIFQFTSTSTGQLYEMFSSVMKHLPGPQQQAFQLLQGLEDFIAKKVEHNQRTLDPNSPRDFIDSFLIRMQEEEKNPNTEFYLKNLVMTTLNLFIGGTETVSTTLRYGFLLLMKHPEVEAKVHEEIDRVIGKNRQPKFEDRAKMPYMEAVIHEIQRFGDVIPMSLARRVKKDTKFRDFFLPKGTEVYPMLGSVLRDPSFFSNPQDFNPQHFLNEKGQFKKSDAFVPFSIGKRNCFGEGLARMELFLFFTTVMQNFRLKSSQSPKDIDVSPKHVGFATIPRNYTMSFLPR
# [22] = molecular target: T1, CYP2A6; assay: Inhibitory activity of 200 uM SPP100 on 34 Pmoles of cDNA-derived CYP2A6 enzyme in microsome prepared from human lymphoblastoid cell line; format: ADME, microsomes; set-up: conc 200 uM, interact cpd conc 3 uM; details: probe coumarine
# [23] = molecular target: CYP2C9 (Homo sapiens, UniProt P11712); assay: Inhibitory activity of 200 uM SPP100 on 201 Pmoles of cDNA-derived CYP2C9 enzyme in microsome prepared from human lymphoblastoid cell line; format: ADME, microsomes; set-up: conc 200 uM, interact cpd conc 6 uM; details: probe diclofenac
# [24] = molecular target: CYP2C19 (Homo sapiens, UniProt P33261); assay: Inhibitory activity of 20 uM SPP100 on 1174 Pmoles of cDNA-derived CYP2C19 enzyme in microsome prepared from human lymphoblastoid cell line; format: ADME, microsomes; set-up: conc 20 uM, interact cpd conc 50 uM; details: probe (S)-mephenytoin
# [25] = % SPP100 recovered of receiver rat following duodenal infusion of radioactivity through bile from donor rat treated with single intravenous administration of 10 mg.Kg-1 [14C] aliskiren hemifumarate; format: ADME, organism-based, HAN:WIST(SPF); details: in vivo
# [26] = AUC of [14C] aliskiren hemifumarate following single intravenous dose of [14C] aliskiren hemifumarate at 10 mg.Kg-1 level in mouse; format: ADME, organism-based, TgRasH2, Plasma; details: in vivo
# [27] = Concentration of radioactivity in carcass following intravenous administration of [14C] aliskiren hemifumarate at 10 mg.Kg-1 level measured on day 7 in rat; format: ADME, organism-based, Lister-Hooded; details: in vivo
# [28] = Excretion of radioactivity (48-72h) in urine following single intravenous dose of 10 mg.Kg-1 [14C] aliskiren hemifumarate in mouse; format: ADME, organism-based, TgRasH2; details: in vivo
# [29] = Elimination (0-96h) of radioactivity via biliary route following oral administration of [14C] aliskiren hemifumarate at 100 mg.Kg-1 level in rat; format: ADME, organism-based, Albino HAN:WIST, Bile; details: in vivo
# [30] = Excretion of radioactivity (24-48h) in urine following single oral dose of 100 mg.Kg-1 [14C] aliskiren hemifumarate in rat; format: ADME, organism-based, Albino HAN:WIST; details: in vivo
# [31] = Mean excretion of radioactivity (72-96h) in urine and faeces following single intravenous dose of 10 mg.Kg-1 [14C] aliskiren hemifumarate in rat; format: ADME, organism-based, Albino HAN:WIST, Urine/Feces; details: in vivo
# [32] = Tmax of radioactivity following repeated oral administration of [14C] aliskiren hemifumarate at 100 mg.Kg-1 level studied after 2h of dosing on day 10 in rat; format: ADME, organism-based, Albino HAN:WIST; details: in vivo
# [33] = Concentration of radioactivity in the kidney medulla following repeated oral administration of [14C] aliskiren hemifumarate at 100 mg.Kg-1 level studied at 2h after 10th dose in rat; format: ADME, organism-based, Albino HAN:WIST, Renal medulla; details: in vivo
# Sequence of Voltage-gated inwardly rectifying potassium channel KCNH2 (Q12809 whole entry): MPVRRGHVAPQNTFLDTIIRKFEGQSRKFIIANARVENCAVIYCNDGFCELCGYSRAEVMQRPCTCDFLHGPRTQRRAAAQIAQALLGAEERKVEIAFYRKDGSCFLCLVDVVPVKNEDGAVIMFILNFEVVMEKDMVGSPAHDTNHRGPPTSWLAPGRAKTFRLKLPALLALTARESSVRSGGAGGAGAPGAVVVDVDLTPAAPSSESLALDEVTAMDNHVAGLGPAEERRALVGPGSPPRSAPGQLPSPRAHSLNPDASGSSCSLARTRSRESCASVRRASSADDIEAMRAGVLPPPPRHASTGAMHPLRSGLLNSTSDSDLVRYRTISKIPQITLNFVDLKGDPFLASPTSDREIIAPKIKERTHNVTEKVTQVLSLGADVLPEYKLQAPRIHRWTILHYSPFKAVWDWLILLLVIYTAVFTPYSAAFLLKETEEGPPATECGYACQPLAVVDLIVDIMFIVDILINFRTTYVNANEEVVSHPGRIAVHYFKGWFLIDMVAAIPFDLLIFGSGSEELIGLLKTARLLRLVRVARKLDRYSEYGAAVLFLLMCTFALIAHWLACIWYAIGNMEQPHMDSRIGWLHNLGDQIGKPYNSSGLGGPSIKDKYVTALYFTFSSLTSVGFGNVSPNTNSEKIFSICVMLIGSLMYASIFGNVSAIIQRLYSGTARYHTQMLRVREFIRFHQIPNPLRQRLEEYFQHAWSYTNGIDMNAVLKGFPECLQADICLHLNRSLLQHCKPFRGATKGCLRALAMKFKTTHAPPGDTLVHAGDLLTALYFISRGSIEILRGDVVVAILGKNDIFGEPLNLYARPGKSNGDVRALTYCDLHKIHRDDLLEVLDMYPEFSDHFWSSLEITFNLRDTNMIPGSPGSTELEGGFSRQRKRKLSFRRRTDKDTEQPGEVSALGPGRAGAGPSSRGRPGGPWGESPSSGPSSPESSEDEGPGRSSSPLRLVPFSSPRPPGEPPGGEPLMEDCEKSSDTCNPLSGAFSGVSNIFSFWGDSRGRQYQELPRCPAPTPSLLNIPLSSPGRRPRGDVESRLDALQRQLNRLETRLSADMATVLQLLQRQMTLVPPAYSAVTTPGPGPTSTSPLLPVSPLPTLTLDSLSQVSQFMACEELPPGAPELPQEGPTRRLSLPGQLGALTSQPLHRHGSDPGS
# Sequence of CYP2C19 (P33261 whole entry, the tested form may be a part): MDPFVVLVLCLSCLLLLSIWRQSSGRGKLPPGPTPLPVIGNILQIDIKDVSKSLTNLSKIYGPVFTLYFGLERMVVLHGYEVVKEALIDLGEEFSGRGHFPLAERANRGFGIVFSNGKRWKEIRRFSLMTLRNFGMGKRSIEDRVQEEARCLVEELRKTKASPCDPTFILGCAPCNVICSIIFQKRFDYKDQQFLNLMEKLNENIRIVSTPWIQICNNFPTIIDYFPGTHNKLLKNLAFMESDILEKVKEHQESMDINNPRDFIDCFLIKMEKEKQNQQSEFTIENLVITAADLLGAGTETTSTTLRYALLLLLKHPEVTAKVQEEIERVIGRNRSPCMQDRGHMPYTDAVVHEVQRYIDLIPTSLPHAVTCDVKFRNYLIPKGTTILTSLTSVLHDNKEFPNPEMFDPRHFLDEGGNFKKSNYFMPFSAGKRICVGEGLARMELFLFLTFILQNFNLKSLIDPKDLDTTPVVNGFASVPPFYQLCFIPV
# Sequence of CYP2C9 (P11712 whole entry): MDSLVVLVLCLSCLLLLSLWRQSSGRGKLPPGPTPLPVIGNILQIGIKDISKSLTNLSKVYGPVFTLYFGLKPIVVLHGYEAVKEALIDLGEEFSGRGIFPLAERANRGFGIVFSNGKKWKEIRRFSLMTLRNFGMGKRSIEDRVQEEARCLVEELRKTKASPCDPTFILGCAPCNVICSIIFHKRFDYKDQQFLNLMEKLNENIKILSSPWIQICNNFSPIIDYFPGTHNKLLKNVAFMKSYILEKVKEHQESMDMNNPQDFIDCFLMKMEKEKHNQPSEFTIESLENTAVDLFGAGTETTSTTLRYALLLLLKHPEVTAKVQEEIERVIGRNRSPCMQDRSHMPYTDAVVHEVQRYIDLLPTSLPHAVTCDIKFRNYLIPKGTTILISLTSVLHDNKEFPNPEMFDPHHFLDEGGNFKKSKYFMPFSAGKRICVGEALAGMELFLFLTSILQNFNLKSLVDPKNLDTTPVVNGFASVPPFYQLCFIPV
compound,measurement,setting,value
COCCCOc1cc(C[C@@H](C[C@H](N)[C@@H](O)C[C@H](C(=O)NCC(C)(C)C(N)=O)C(C)C)C(C)C)ccc1OC.COCCCOc1cc(C[C@@H](C[C@H](N)[C@@H](O)C[C@H](C(=O)NCC(C)(C)C(N)=O)C(C)C)C(C)C)ccc1OC.O=C(O)/C=C/C(=O)O [ALISKIREN FUMARATE],Cmax,[1],0.146 µg/mL
same,AUC,[2],0.0964 µg·h/mL
same,AUC at 192 h,[3],0.137 µg·h/mL
same,IC25,[4],670.9 µM
same,IC50,[4],OUTCOME = IC50 was not calculated since inhibition did not reach 50% level
same,Cmax,[5],19.8 µM
same,Plasma magnesium_CHANGE_BY,[6],130%
same,Cmax,[7],9.67 µg/mL
same,Cmax,[8],10.6 µg/mL
same,Cmax normalised,[9],0.072 (ug/ml)/(mg/kg)
same,Cmax normalised,[10],0.079 (ug/ml)/(mg/kg)
same,bioavailability,[11],2.4%
same,Change in spermatogenesis,[12],OUTCOME = No abnormalities. No animals died during the study.
same,Tmax,[13],3 h
same,AUC(0-t) at 24 h,[14],11.8 µg·h/mL
same,AUC normalised,[15],2.2 ((ug.h.ml-1)/(mg/kg)
same,AUC normalised,[16],0.764 ((ug.h.ml-1)/(mg/kg)
same,AUC normalised,[17],1.12 ((ug.h.ml-1)/(mg/kg)
same,Tmax,[18],4.98 min
same,Cmax,[19],14.2 µM
COCCCOc1cc(C[C@@H](C[C@H](N)[C@@H](O)C[C@H](C(=O)NCC(C)(C)C(N)=O)C(C)C)C(C)C)ccc1OC,CL/F,[20],4230 mL/min
same,inhibition at 20 µM,[21],2.6%
same,inhibition at 200 µM,[22],10.5%
same,inhibition at 200 µM,[23],23%
same,inhibition at 20 µM,[24],-1.5%
same,Compound recovery,[25],60.4%
COCCCOc1cc(C[C@@H](C[C@H](N)[C@@H](O)C[C@H](C(=O)NCC([14CH3])([14CH3])C(N)=O)C(C)C)C(C)C)ccc1OC.O=C(O)/C=C/C(=O)O,AUC,[26],5.01 µM·h
same,Radiolabel recovery,[27],"OUTCOME = Observed, VALUE = residues of radioactivity remained in the carcass at 7 days after dosing"
same,Radiolabel recovery,[28],8.99%
same,Radiolabel recovery,[29],OUTCOME = Observed/Elimination of radioactivity was mainly via biliary route
same,Radiolabel recovery,[30],0.17%
same,Radiolabel recovery,[31],2.24%
same,Tmax(10),[32],218 h
same,Radiolabel recovery,[33],OUTCOME = Detected
